Laboratory results from patent US20250152585A1, “PHARMACEUTICAL COMPOUND” (Duke Street Bio Limited, priority 2022, published 2025).
Read-outs that look alike come from different tables or passages of the source.

Experiments:
[1] = system: PARP1; settings: Johannes et al. J. Med. Chem. 2021; cited from earlier work
[2] = rodent models; compared with first-generation PARP inhibitors; Illuzzi et al. 2022; cited from earlier work
[3] = molecular target: T1, PARP1 (Homo sapiens, UniProt P09874); assay: NanoBRET cellular target occupancy assay, PARP1; type: cell-based; settings: for Kd: HEK293 cells transiently transfected with PARP1-NanoLuc fusion, tracer 11 nM, 2 hours at 37° C., Kd by Cheng-Prussoff; for Selectivity: NanoBRET, PARP1 over PARP2, Kd (PARP2)/Kd (PARP1)
T1 construct: host or cells: HEK293

[4] = molecular target: T2, PARP2 (Homo sapiens, UniProt Q9UGN5); assay: NanoBRET cellular target occupancy assay, PARP2; type: cell-based; settings: HEK293 cells transiently transfected with PARP2-NanoLuc fusion; tracer 2 nM; 2 hours at 37° C.; Kd by Cheng-Prussoff
T2 construct: host or cells: HEK293
Description: NanoBRET Cellular Target Occupancy Assay

[5] = molecular target: T3, full length N-terminally FLAG-tagged PARP1 (Homo sapiens, UniProt P09874); assay: PARP1 biochemical DELFIA assay (auto-PARylation); design: recombinant full length human N-terminally FLAG-tagged PARP1
[6] = molecular target: T3, full length N-terminally FLAG-tagged PARP1; assay: PARP1 probe displacement HTRF assay; settings: for Selectivity: PARP1 over PARP2, ratio Kd (PARP2)/Kd (PARP1); for Kd: binned Kd
[7] = molecular target: T4, N-terminally FLAG-tagged PARP2 (amino acids 1-583) (Homo sapiens, UniProt Q9UGN5); assay: PARP2 probe displacement HTRF assay; type: binding; settings: binned Kd
T4 construct: N-terminally FLAG-tagged PARP2 (amino acids 1-583)
Protocol: Data analysis was performed identical as for PARP1.

[8] = binned IC50, PARP1 biochemical DELFIA assay
[9] = read-out: PARP1 HTRF, PARP1 probe displacement HTRF
[10] = binned IC50, biochemical auto-PARylation assay
[11] = read-out: PARP1 HTRF, probe displacement HTRF
[12] = PARP1 HTRF, probe displacement HTRF

T3 sequence (P09874 whole entry): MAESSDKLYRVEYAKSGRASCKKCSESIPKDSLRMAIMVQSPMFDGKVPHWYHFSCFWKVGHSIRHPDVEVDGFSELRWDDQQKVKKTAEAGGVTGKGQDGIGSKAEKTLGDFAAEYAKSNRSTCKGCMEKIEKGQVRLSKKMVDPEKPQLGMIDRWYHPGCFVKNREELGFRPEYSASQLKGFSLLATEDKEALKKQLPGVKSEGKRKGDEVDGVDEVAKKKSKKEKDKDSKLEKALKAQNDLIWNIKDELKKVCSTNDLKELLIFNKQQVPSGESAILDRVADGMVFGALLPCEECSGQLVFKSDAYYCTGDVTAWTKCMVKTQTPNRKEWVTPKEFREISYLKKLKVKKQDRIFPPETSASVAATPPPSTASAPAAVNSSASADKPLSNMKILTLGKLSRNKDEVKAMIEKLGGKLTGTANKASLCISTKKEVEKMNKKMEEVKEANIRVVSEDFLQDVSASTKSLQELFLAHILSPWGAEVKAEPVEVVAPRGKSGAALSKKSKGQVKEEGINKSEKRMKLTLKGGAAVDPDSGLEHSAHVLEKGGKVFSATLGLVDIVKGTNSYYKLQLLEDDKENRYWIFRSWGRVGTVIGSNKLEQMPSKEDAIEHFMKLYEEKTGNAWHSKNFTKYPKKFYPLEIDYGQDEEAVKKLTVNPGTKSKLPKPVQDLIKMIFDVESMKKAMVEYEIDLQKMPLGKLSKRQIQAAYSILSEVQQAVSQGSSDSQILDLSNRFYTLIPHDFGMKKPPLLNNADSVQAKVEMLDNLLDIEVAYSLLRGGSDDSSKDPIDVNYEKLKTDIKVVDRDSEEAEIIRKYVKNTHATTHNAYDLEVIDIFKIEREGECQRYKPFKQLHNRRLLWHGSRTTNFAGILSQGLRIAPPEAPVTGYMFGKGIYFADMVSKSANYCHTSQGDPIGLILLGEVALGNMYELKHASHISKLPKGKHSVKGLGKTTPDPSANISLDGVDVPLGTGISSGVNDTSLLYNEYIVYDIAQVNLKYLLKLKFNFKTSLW
T1 sequence (P09874 whole entry, the tested form may be a part): as the sequence (P09874 whole entry) above
T4 sequence (Q9UGN5 whole entry, the tested form may be a part): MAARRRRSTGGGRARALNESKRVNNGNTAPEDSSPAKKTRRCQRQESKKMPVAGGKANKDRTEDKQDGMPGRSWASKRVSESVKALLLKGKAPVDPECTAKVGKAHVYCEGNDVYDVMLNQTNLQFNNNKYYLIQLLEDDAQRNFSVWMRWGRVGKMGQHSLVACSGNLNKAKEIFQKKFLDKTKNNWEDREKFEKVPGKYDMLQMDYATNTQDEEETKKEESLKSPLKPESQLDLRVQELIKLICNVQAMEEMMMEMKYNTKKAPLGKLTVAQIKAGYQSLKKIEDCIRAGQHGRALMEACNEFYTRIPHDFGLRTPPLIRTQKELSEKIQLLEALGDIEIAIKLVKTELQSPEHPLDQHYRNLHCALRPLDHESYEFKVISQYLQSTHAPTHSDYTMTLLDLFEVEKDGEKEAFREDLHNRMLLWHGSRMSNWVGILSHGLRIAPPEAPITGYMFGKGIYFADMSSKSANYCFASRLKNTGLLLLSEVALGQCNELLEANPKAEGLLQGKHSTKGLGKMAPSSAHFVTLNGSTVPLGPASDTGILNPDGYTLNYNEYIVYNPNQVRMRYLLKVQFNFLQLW
T2 sequence (Q9UGN5 whole entry, the tested form may be a part): as above

| Kd [3] [nM] | Kd [4] [nM] | IC50 [5, 8] [nM] | Kd [6, 9] [nM] | Kd ([7]; PARP2 probe displacement HTRF) [nM] | IC50 [5, 10] [nM] | Kd [6, 11] [nM] | Kd ([7]; probe displacement HTRF) [nM] | Kd ([6]; PARP1 HTRF, PARP1 probe displacement HTRF) [nM] | Kd [6, 12] [nM] | SMILES | selectivity over PARP2 [1] [fold] | haematotoxicity [2] | Selectivity [3] | Selectivity ([6]; probe displacement HTRF) |
| --- | --- | --- | --- | --- | --- | --- | --- | --- | --- | --- | --- | --- | --- | --- |
|  |  |  |  |  |  |  |  |  |  | CCc1cc2ncc(CN3CCN(c4ccc(C(=O)NC)nc4)CC3)cc2[nH]c1=O [AZD5305] | 500 | significantly less haematotoxicity |  |  |
| < 10 | 1000 to 10000 | < 10 | < 10 | 100 to 1000 |  |  |  |  |  | CCc1ccc(C2CCN(C3CCN(c4ccc(C(=O)NC)nc4)CC3)C2)[nH]c1=O (single isomer, unassigned) [Compound 72b] |  |  | +++ (+++ indicate a value of at least 100) | +++ (+++ indicate a value of at least 100) |
| < 10 | 1000 to 10000 |  |  |  | < 10 | < 10 | 100 to 1000 |  |  | CNC(=O)c1ccc(N2CCC(N3CCC(c4cc5ncc(Cl)cc5c(=O)[nH]4)C3)CC2)cn1 (racemic) [Compound 329rac] |  |  | +++ (+++ indicate a value of at least 100) | +++ (+++ indicate a value of at least 100) |
| < 10 | 1000 to 10000 | < 10 |  | 1000 to 10000 |  |  |  | < 10 |  | CNC(=O)c1ccc(N2CCC(N3CC4(c5nc6ccccc6c(=O)[nH]5)CC3C4)CC2)cn1 [Compound 192, N-methyl-5-(4-(4-(4-oxo-3,4-dihydroquinazolin-2-yl)-2-azabicyclo[2.1.1]hexan-2-yl)piperidin-1-yl)picolinamide] |  |  | +++ (+++ indicate a value of at least 100) | +++ (+++ indicate a value of at least 100) |
| < 10 | 10 to 100 | < 10 | < 10 | < 10 |  |  |  |  |  | CNC(=O)c1ccc(N2CCC(N3CCC(c4nc5cccc(C(F)(F)F)c5c(=O)[nH]4)C3)CC2)cn1 (single isomer, unassigned) [Compound 86b] |  |  | + (+ indicates a value of 10 to less than 50) | + (+ indicates a value of 10 to less than 50) |
| < 10 | 100 to 1000 | < 10 | < 10 | 10 to 100 |  |  |  |  |  | CNC(=O)c1ccc(N2CCC(N3CCC(c4cc5ccc(Cl)cc5c(=O)[nH]4)C3)CC2)cn1 (single isomer, unassigned) [Compound 129b] |  |  | +++ (+++ indicate a value of at least 100) | +++ (+++ indicate a value of at least 100) |
| < 10 | 100 to 1000 | < 10 | < 10 | 10 to 100 |  |  |  |  |  | CNC(=O)c1ccc(N2CCC(N3CCC(c4cc5c(Cl)cccc5c(=O)[nH]4)C3)CC2)cn1 (single isomer, unassigned) [Compound 137b] |  |  | +++ (+++ indicate a value of at least 100) | + (+ indicates a value of 10 to less than 50) |
| < 10 | 1000 to 10000 |  |  |  | < 10 |  | 100 to 1000 |  | < 10 | CNC(=O)c1ccc(N2CCC(N3CCC(c4cc5c(c(=O)[nH]4)CCCC5)C3)CC2)c(F)n1 (single isomer, unassigned) [Compound 337a, 6-fluoro-N-methyl-5-(4-(3-(1-oxo-1,2,5,6,7,8-hexahydroisoquinolin-3-yl)pyrrolidin-1-yl)piperidin-1-yl)picolinamide] |  |  | +++ (+++ indicate a value of at least 100) | +++ (+++ indicate a value of at least 100) |
| < 10 | 100 to 1000 | < 10 | < 10 | 10 to 100 |  |  |  |  |  | CNC(=O)c1ccc(N2CCC(N3CCC(c4cc5cccc(F)c5c(=O)[nH]4)C3)CC2)cn1 (single isomer, unassigned) [Compound 136b, 5-{4-[3-(8-fluoro-1-oxo-2H-isoquinolin-3-yl)pyrrolidin-1-yl]piperidin-1-yl}-N-methylpyridine-2-carboxamide] |  |  | +++ (+++ indicate a value of at least 100) | +++ (+++ indicate a value of at least 100) |
| < 10 | 100 to 1000 | < 10 | < 10 | 100 to 1000 |  |  |  |  |  | CNC(=O)c1ccc(N2CCC(N3CCC(c4cc5ccc(F)cc5c(=O)[nH]4)C3)CC2)c(C)n1 (single isomer, unassigned) [Compound 196a] |  |  | +++ (+++ indicate a value of at least 100) | +++ (+++ indicate a value of at least 100) |
| < 10 | 100 to 1000 |  |  |  | < 10 | < 10 | 100 to 1000 |  |  | CCc1ccc(C2CCN(C3CCN(c4ccc(C(=O)NCCF)nc4F)CC3)C2)[nH]c1=O (single isomer, unassigned) [Compound 322b] |  |  | +++ (+++ indicate a value of at least 100) | +++ (+++ indicate a value of at least 100) |
| < 10 | 1000 to 10000 | < 10 | < 10 | 100 to 1000 |  |  |  |  |  | CNC(=O)c1ccc(N2CCC(N3CCC(c4cc5cccc(F)c5c(=O)[nH]4)C3)CC2)c(Cl)n1 (single isomer, unassigned) [Compound 183b] |  |  | +++ (+++ indicate a value of at least 100) | +++ (+++ indicate a value of at least 100) |
| < 10 | 100 to 1000 |  |  |  | < 10 | < 10 | 100 to 1000 |  |  | N#Cc1ccc(N2CCC(N3CCC(c4cc5cccc(F)c5c(=O)[nH]4)C3)CC2)cn1 (single isomer, unassigned) [Compound 316a] |  |  | +++ (+++ indicate a value of at least 100) | +++ (+++ indicate a value of at least 100) |
| < 10 | 100 to 1000 | < 10 | < 10 | 100 to 1000 |  |  |  |  |  | CNC(=O)c1ccc(N2CCC(N3CCC(c4nc5ccc(F)cc5c(=O)[nH]4)C3)CC2)cn1 (single isomer, unassigned) [Compound 64b] |  |  | +++ (+++ indicate a value of at least 100) | +++ (+++ indicate a value of at least 100) |
| < 10 | 10 to 100 |  |  |  | < 10 | < 10 | 10 to 100 |  |  | O=C(NC1CC1)c1ccc(N2CCC(N3CCC(c4cc5cccc(F)c5c(=O)[nH]4)C3)CC2)cn1 (single isomer, unassigned) [Compound 339a] |  |  | + (+ indicates a value of 10 to less than 50) | + (+ indicates a value of 10 to less than 50) |
| < 10 | 100 to 1000 |  |  |  | < 10 | < 10 | 100 to 1000 |  |  | CNC(=O)c1ccc(N2CCC(N3CCC(c4cc5ncc(F)cc5c(=O)[nH]4)C3)CC2)cn1 (racemic) [Compound 315rac] |  |  | +++ (+++ indicate a value of at least 100) | +++ (+++ indicate a value of at least 100) |
| 100 to 1000 | 1000 to 10000 |  |  |  | < 10 |  | 100 to 1000 |  | < 10 | CNC(=O)c1ccc(N2CCC(N3CC4(c5nc6c(c(=O)[nH]5)CCCN6)CC3C4)CC2)cn1 [Compound 312] |  |  | ++ (++ indicates a value of 50 to less than 100) | +++ (+++ indicate a value of at least 100) |
| < 10 | 100 to 1000 |  |  |  | < 10 | < 10 | 100 to 1000 |  |  | N#Cc1ccc(N2CCC(N3CCC(c4cc5cccc(F)c5c(=O)[nH]4)C3)CC2)cc1 (single isomer, unassigned) [Compound 314b] |  |  | +++ (+++ indicate a value of at least 100) | +++ (+++ indicate a value of at least 100) |
| < 10 | 100 to 1000 |  |  |  | < 10 | < 10 | 100 to 1000 |  |  | CNC(=O)c1ccc(N2CCC(N3CCC(c4[nH]c(=O)c5ccccc5c4F)C3)CC2)cn1 (racemic) [Compound 258rac] |  |  | +++ (+++ indicate a value of at least 100) | +++ (+++ indicate a value of at least 100) |
| < 10 | 100 to 1000 | < 10 | < 10 | 10 to 100 |  |  |  |  |  | CNC(=O)c1ccc(N2CCC(N3CCC(c4cc5c(F)ccc(F)c5c(=O)[nH]4)C3)CC2)cn1 (single isomer, unassigned) [Compound 180b] |  |  | +++ (+++ indicate a value of at least 100) | ++ (++ indicates a value of 50 to less than 100) |
